In US7709514B2, “Therapeutic molecules and methods-1” (Cortical Pty Ltd, priority 2002, dated 2010):
Like-named read-outs stand apart in the source and are kept apart here.

Legend:
[1] = tested on: IL-1-induced COX-2 expression; assay: IL-1-induced COX-2 expression in S112 human dermal fibroblasts (MIF-dependent bioassay); type: cell-based; settings: Homo sapiens, Fibroblast; for inhibition at 50 µM: read-out: % inhibition of IL-1-induced COX-2 expression; for inhibition at 25 µM: compound 25 μM
Protocol: The activity of compounds was studied in a bioassay utilising MIF-dependent activation of human dermal fibroblasts. […] IL-1-induced COX-2 expression is therefore a MIF-dependent event. […] Prior to experimentation, cells were seeded at 10^5 cells/ml in RPMI/0.1% BSA for 18 hours. […] After 6 hours, cells were collected and intracellular COX-2 protein determined by permeabilisation flow cytometry. […] Cellular fluorescence was determined using a flow cytometer. At least 5000 events were counted for each reading, each of which was performed in duplicate, and the results expressed in mean fluorescence intensity (MFI) after subtraction of negative control-labelled cell fluorescence. The effect of each compound was determined by subtracting the IL-1+compound-treated cell MFI from the IL-1-treated cell (control) MFI and expressed as % inhibition. In each case the % inhibition of IL-1-induced COX-2 expression is expressed as the mean, or mean±SEM where results are available from multiple experiments.

[2] = tested on: antigen-specific T cell activation; assay: antigen-specific (mBSA) activation of splenic T lymphocytes, 3H-thymidine incorporation; type: cell-based, mice; settings: Mus musculus, T-cell, read-out: EC50, inhibition of T cell activation
Protocol: C57BL6/J male mice, aged 7-10 weeks old, were immunised with 200 μg of methylated bovine serum albumin (mBSA) dissolved in 20 μL of saline, emulsified in 200 μL of Freund's complete adjuvant (FCA) by subcutaneous injection. Seven (7) days later mice received a booster immunisation with 100 μg mBSA in 10 μL saline plus 100 μL FCA by subcutaneous injection. After a further seven (7) days mice were killed and spleens collected aseptically into Hanks buffered saline solution (HBSS). A single cell suspension was prepared in Petri dishes by flushing DMEM using a 26G needle and 2 mL syringe. The resulting cell suspension was centrifuged for 5-7 minutes and supernatant discarded. Erythrocytes were lysed using a solution containing 0.579% NH4Cl, 0.000037% EDTA, and 0.1% NaHCO3 in a 37° C. water bath. Tubes were then filled with DMEM and centrifuged for 5-7 minutes. The cell-containing pellet was then resuspended in DMEM containing 5% fetal calf serum TICS) and 0.05% 2-mercapto-ethanol at a concentration of 1×10^6 cells/mL and plated at 1×10^5 cells/well in 96-well plastic tissue culture plates. Test substances (compound or vehicle) were added and incubated for 1 hour in a 37° C., 5% CO2 incubator. The specific stimulating antigen, mBSA, was then added at 10-50 μg/ml and plates incubated for 30 hours in a 37° C., 5% CO2 incubator. Tritiated ^3H-thymidine was then added at a concentration of 0.5 μCi/well for a further 18 hours. Cells were harvested on a Packard cell harvester, and the harvested material added to 750 μL/tube scintillation fluid. Scintillation counts were read on a Wallac beta-emission counter.
The concentration at which T cell activation was suppressed by 50% compared to vehicle-only-treated cells (EC50) was calculated using Prism® software. […] Further compounds were also tested for their ability to inhibit antigen-specific T cell activation as a marker of the inhibition of the cytokine or biological activity of MIF using this assay. Table 5 lists the EC50 for each compound in this assay, performed with concentrations of mBSA of either 50 or 10 μg/ml.

[3] = tested on: murine peritoneal macrophage nitric oxide production; assay: inhibition of peritoneal macrophage nitric oxide release (Greiss assay); type: cell-based, mice; settings: Mus musculus, LPS 10 ng/ml and interferon-γ 10 units/ml, 24 hours, read-out: % Nitrite concentration inhibition from control
Protocol: C57BL6/J male mice were injected intraperitoneally with 2 ml of thioglycollate. Five (5) days later peritoneal macrophages were collected by lavaging the peritoneum of anaesthetized mice with 3 ml of cold Hanks buffered saline solution. Cells from several mice were pooled, washed and re-suspended in DMEM supplemented with 5% FCS. Cells were plated in 96 well plastic tissue culture plates at 1×10^5 cells/well. Cells were treated with compound or vehicle for 1 hour in a 5% CO2 incubator at 37° C. Cells were then treated with LPS (10 ng/ml) and recombinant human interferon-γ (10 units/ml) and incubated for 24 hours. After 24 hours, 50 μl of supernatant from each well was carefully removed and transferred to ELISA plates. The concentration of nitrite in culture supernatants was measured by the Greiss assay (27). The results were defined as the percentage inhibition of nitrite concentration in compound-treated cell culture supernatants compared to that of vehicle-treated cells.

[4] = compound 50 μM, S112 cells, IL-1 0.1 ng/ml, 6 hours
[5] = S112 cells, IL-1 0.1 ng/ml, 6 hours

| Compound | inhibition at 50 µM [1, 4] [%] | EC50 ([2]; mBSA 10 μg/ml) [µM] | EC50 ([2]; mBSA 50 μg/ml) [µM] | also measured |
| --- | --- | --- | --- | --- |
| COC(=O)c1ccc2[nH]c(=O)[nH]c2c1 [Compound 7, benzimidazol-2-one-5-methanoate] | 16.7 | 33.9 | 44.8 |  |
| O=C(NC(CO)C(=O)O)c1ccc2[nH]c(=O)[nH]c2c1 (stereo not drawn) [Compound 10, 3-hydroxy-2-{[(2-oxo-2,3-dihydro-1H-1,3-benzimidazol-5-yl)carbonyl]amino}propanoic acid] | 19.3 | > 100 | 77.5 |  |
| Cc1cc2[nH]c(=O)[nH]c2cc1N [Compound 23, 5-Amino-6-methylbenzimidazol-2-one] | 8.5 |  |  |  |
| Cc1cc2[nH]c(=O)[nH]c2cc1[N+](=O)[O-] [Compound 22, 5-Methyl-6-nitrobenzimidazol-2-one] |  | > 100 | > 100 | inhibition at 25 µM [1, 5]: 30% |
| Cc1c(Br)c(Br)c2[nH]c(=O)[nH]c2c1Br [Compound 20, 4,5,7-Tribromo-6-methylbenzimidazol-2-one] |  |  |  | inhibition at 25 µM [1, 5]: 28.5% |
| CCOC(=O)c1ccc2[nH]c(=O)[nH]c2c1 [Compound 8] | 19.9 | 25.4 | > 100 |  |
| CCCCCSC(=O)c1ccc2[nH]c(=O)[nH]c2c1 [Compound 25, Pentyl-benzimidazol-2-one-5-carbothioate] |  | > 100 | > 100 |  |
| O=C(O)CCCC(=O)c1ccc2[nH]c(=O)[nH]c2c1 [Compound 26, 5-(benzimidazol-2(3H)-one-6-yl)-5-oxopentanoic acid] | 9.8 | 10.2 | 2.31 |  |
| Cc1ccc2[nH]c(=O)[nH]c2c1 [Compound 2, 5-Methylbenzimidazol-2-one] |  |  |  | inhibition at 50 µM ([1]; 6 h): 13%; EC50 [2]: 7.29 µM; melting point: 300 to 302 °C |
| COC(=O)C(CO)NC(=O)c1ccc2[nH]c(=O)[nH]c2c1 (stereo not drawn) [Compound 9, methyl 3-hydroxy-2-{[(2-oxo-2,3-dihydro-1H-1,3-benzimidazol-5-yl)carbonyl]amino}propanoate] | 14.9 | 77 | 61.9 |  |
| O=C(OCCOCCO)c1ccc2[nH]c(=O)[nH]c2c1 [Compound 6, 5[2(1-oxy-2-hydroxyethyl)ethyl]benzimidazol-2-one-5-carboxylate] | 17.8 | 25.8 | > 100 | melting point: 227 to 228 °C |
| COC(=O)C(Cc1ccccc1)NC(=O)c1ccc2[nH]c(=O)[nH]c2c1 (stereo not drawn) [Compound 11, methyl 2-{[(2-oxo-2,3-dihydro-1H-1,3-benzimidazol-5-yl)carbonyl]amino}-3-phenyl propanoate] | 17.5 | 44.4 | 50.7 | inhibition at 25 µM ([3]; compound 25 μM): 3.1%; inhibition at 50 µM ([3]; compound 50 μM): 28.1%; inhibition at 100 µM ([3]; compound 100 μM): 65.5% |
| Cc1cc2[nH]c(=O)[nH]c2cc1NC(=O)CSc1ncccn1 [Compound 24] | 30.3 |  |  |  |
| CCCCCOC(=O)c1ccc2[nH]c(=S)[nH]c2c1 [Compound 15, Pentyl-benzimidazole-2-thioxo-5-carboxylate] | 33.1 | 9.4 | 10.1 |  |
| Cc1cc2[nH]c(=O)[nH]c2cc1O [Compound 18, 5-Hydroxy-6-methybenzimidazol-2-one] | 2.4 | 19.3 | 34 |  |
| CCCCCOS(=O)(=O)c1ccc2[nH]c(=O)[nH]c2c1 [Compound 28, 2(3H)-benzimidazolone-5-sulfonic acid pentyl ester] |  | 2.19 | 7.37 |  |
| CCCCCCC(=O)c1ccc2c(c1)CC(=O)O2 [Compound 33] |  | 24.8 | 14 | melting point: 64 to 67 °C |
| CCCCCNS(=O)(=O)c1ccc2[nH]c(=O)[nH]c2c1 [Compound 27, 2(3H)-benzimidazolone-5-sulfonic acid pentyl amide] | 37.4 | 9.15 | 1.29 | melting point: 316 to 318 °C |
| Cc1cc2[nH]c(=O)[nH]c2cc1Br [Compound 17, 5-Bromo-6-methybenzimidazol-2-one] | 22.4 | 2.91 | 10.7 |  |
| CCCCCc1ccc2[nH]c(=O)[nH]c2c1 [Compound 34, 5-Pentylbenzimidazol-2-one] |  | 13.5 | 49.9 | inhibition at 10 µM ([1]; compound 10 μM, S112 cells, IL-1 0.1 ng/ml, 6 hours): 14.9% |
| CCCCNC(=N)c1ccc2[nH]c(=O)[nH]c2c1 [Compound 32, N-butyl-2-oxo-2,3-dihydro-1H-1,3-benzimidazole-5-carboximidamide] | 13.8 | > 100 | > 100 | melting point: 168 °C |
| CC(=O)OCC1OC(OC(=O)c2ccc3[nH]c(=O)[nH]c3c2)C(OC(C)=O)C(OC(C)=O)C1OC(C)=O (stereo not drawn) [Compound 16, 3,4,5-tris(acetyloxy)-6-[(acetyloxy)methyl]tetrahydro-2H-pyran-2-yl-benzimidazole-2-one-5-carboxylate] |  | 23.8 | 26 |  |
| O=C(NC(Cc1ccccc1)C(=O)O)c1ccc2[nH]c(=O)[nH]c2c1 (stereo not drawn) [Compound 12, 2-{[(2-oxo-2,3-dihydro-1H-1,3-benzimidazol-5-yl)carbonyl]amino}-3-phenyl propanoic acid] | 19.9 | > 100 | 77.9 |  |
